Here are results for 21 molecules from US7169785B2, “Methods and compositions of novel triazine compounds” (Reddy US Therapeutics, Inc., priority 2001, dated 2007).

Structures are written as SMILES. pIC50: −log10 of the molar value. Where two headings read alike, the source gives them in different places.

In one data set the test system is heparanase. Description: Induction and measurement of endothelial heparanase protein (TNF-induced heparanase secretion). Format: cell-based, human. To be noted: for Relative Activity: inhibition of TNF-induced heparanase secretion, scale at 5 uM compound concentration; for inhibition at 10 µM / inhibition at 5 µM: Homo sapiens. As for the experimental part: Experiments were carried out on human microvascular endothelial cells (HMVEC) grown in 48-well plates (˜90% confluency). To induce heparanase activity, culture media was replaced with 200 μl Dulbecco's Modified Eagle's medium (DMEM) complemented with 1% bovine serum albumin (BSA) and with or without stimulants (5 ng/ml TGF-alpha, 1 ng/ml IL 1alpha, 200 ng/ml VEGF or other stimulants, cytokines, or inducers as required). The secreted proteins were analyzed by SDS/PAGE and heparanase protein was detected by immunoblotting using polyclonal anti-human heparanase antibody. The changes of heparanase expression determined by densitometric analysis. The induction and measurement of endothelial heparanase protein reported in the Tables herein were carried out according to this Example.

Data set [1] has as its system IL-6. Nature of the data set: TNF-α-induced IL-6 production determined by IL-6 ELISA in HAEC. The format is cell-based, human. To be noted: HAEC; for Inhibition of TNF-induced IL6 production: class of % of control IL6 production.
The test system of data set [2] is IL-6. Description: AGE (G-HSA)-induced inflammatory response determined by IL-6 ELISA in HAEC. Format: cell-based, human. Particulars: for pIC50: IL6, unit inferred, read-out: IC50 (AGE stimulation of IL6); for activity at 10 µM: 24 h, IL6, read-out: % IL6 production compare to AGE stimulation of IL6 (100%). In a few lines:
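Human aortic endothelial cells grown to ≥90% confluence, then treated with compounds and stimuli in serum-free medium with 0.2% albumin. Secreted IL-6 in collected media measured by sandwich ELISA (2 ug/ml capture, 200 ng/ml biotinylated detection antibody, streptavidin-HRP), read at 450 nm.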

The test system of data set [3] is Human aortic smooth muscle cells. Nature of the data set: Smooth muscle cell proliferation assay (anti-proliferation assay, perlecan). The format is cell-based. Particulars: Homo sapiens, anti-proliferation assay (perlecan).
Procedure: Human aortic smooth muscle cells (Clonetics) were used. Cells were grown in basal medium containing 5% fetal bovine serum supplemented with growth factors, basic fibroblast growth factor, epidermal growth factor and insulin. […] The cells were then serum starved for 24 h to induce quiescence. Fresh growth medium containing no compound or 10 μM compound was then added and further incubated for 24 h. Cell number was determined by using a cell proliferation assay kit (Celltiter96 AQueous from Promega).
For a further data set, the system named is HAEC. Description: Toxicity to endothelial cells (HAEC) when TNF stimulated. The format is cell-based. Particulars: TNF-stimulated HAEC, compound @ 10 uM. As for the experimental part: Human aortic endothelial cells (HAEC, Clonetics) were cultured according to manufacturer in growth medium (Clonetics): basal medium containing human epidermal growth factor, hydrocortisone, vascular endothelial growth factor, heparin binding growth factor-B, long R3-insulin-like growth factor-1, ascorbic acid, gentamicin/amphotericin and 5% FBS. These cell were allowed to reach at least 90% confluency before subjected to experimental treatments. Glycated human serum albumin (G-HSA) was from US Biologicals. Tumor necrosis factor α was from R&D Systems.
[…] All treatments, compound-added and controls were carried out in serum free media containing 0.2% albumin. Media from all conditions were collected and used for IL-6 ELISA.

Where [4] appears, read: Homo sapiens, 24 h, Compds tested @ 10 uM, IL6, read-out: % IL6 production compare to TNF stimulation of IL6 (100%).
Setting [5] is: Homo sapiens, Compds tested @ 10 uM.

In the case of `CCN1CCCC1CNc1nc(Nc2ccc(OC)c(F)c2)nc(N2CCC[C@H]2COC)n1` (some centres unmarked) [Compound 61], the “Activity, inhibition of TNF-induced heparanase secretion” value in the data set on heparanase (@ 10 uM) is 40–60% inhibition @ 10 uM. The “Relative Activity” value with heparanase is on record as “+ (0–30% inhibition)”. In the data set on IL-6 [1] (Compds tested @ 10 uM, IL6), the “% IL6 production compare to TNF stimulation of IL6 (100%)” value amounted to 2%. Besides, the “Inhibition of TNF-induced IL6 production” value in the data set on IL-6 [1] is “++++ (between 0 and about 25% of IL6 production compared to cells that did not receive compound (or per cent of control IL6 production))”. Moreover, the “% IL6 production compare to AGE stimulation of IL6 (100%)” value in the data set on IL-6 [2] (Compds tested @ 10 uM, IL6) turned out to be 38%. In addition, in the data set with IL-6 [2], the pIC50 was 5.19.

`CCN1CCCC1CNc1nc(Nc2ccc(OC)c(F)c2)nc(N2CCCCCC2)n1` (centres unmarked) [Compound 58, N^2-[(1-ethyl-2-pyrrolidinyl)methyl]-N^4-(3-fluoro-4-methoxyphenyl)-N^6-hexahydro-1H-azepin-1-yl-1,3,5-triazine-2,4-diamine]: the inhibition at 10 µM with heparanase (@ 10 uM) lay within 40 to 60%. For the same molecule, the “Relative Activity” value in the data set with heparanase is given as “+ (0–30% inhibition)”. Besides, the activity at 10 µM worked out at 1% with IL-6 [1] (setting [4]) and 30% in the data set with IL-6 [2] (setting [5]).

`COc1ccc(Nc2nc(NC3CCCCCC3)nc(N3CCN(CC(=O)N4CCCC4)CC3)n2)cc1F` [Compound 94, N^2-cycloheptyl-N^4-(3-fluoro-4-methoxyphenyl)-6-{4-[2-oxo-(1-pyrrolidinyl)ethyl]-1-piperazinyl}-1,3,5-triazine-2,4-diamine] returned an inhibition at 10 µM with heparanase (@ 10 uM) of 40 to 60%. Besides, the “Relative Activity” value in the data set with heparanase is reported as “+ (0–30% inhibition)”. In addition, the activity at 10 µM in the data set with IL-6 [1] (setting [4]) stood at 32%; with IL-6 [2] (setting [5]) it was 10%. The pIC50 in the data set with IL-6 [2] (Homo sapiens) was 5.24.

Take `CCN1CCCC1CNc1nc(Nc2ccc(OC)c(F)c2)nc(NC(C)(C)C)n1` (centres unmarked) [Compound 52, N^2-(tert-butyl)-N^4-[(1-ethyl-2-pyrrolidinyl)methyl]-N^6-(3-fluoro-4-methoxyphenyl)-1,3,5-triazine-2,4,6-triamine]: the inhibition at 10 µM in the data set on heparanase (@ 10 uM) fell in the range of 40 to 60%. In the data set with heparanase, the “Relative Activity” value was “+ (0–30% inhibition)”. For the same molecule, the activity at 10 µM in the data set on IL-6 [1] (setting [4]) was 1%; with IL-6 [2] (setting [5]), 35%.

`COc1ccc(Nc2nc(NCCCCCO)nc(N(C)C3CCNCC3)n2)cc1Cl` [Compound 109, 5-[4-(3-chloro-4-methoxy-phenylamino)-6-(methyl-piperidin-4-yl-amino)-1,3,5-triazin-2-ylamino]-pentan-1-ol]: the melting point came to 101 °C. The “Inhibition of TNF-induced IL6 production” value in the data set with IL-6 [1] was “+++ (between about 25 and about 50% of control IL6 production)”. For the same molecule, the activity at 10 µM with IL-6 [1] (Homo sapiens, 24 h, read-out: % IL6 production compare to TNF stimulation of IL6 (100%), Compds tested @ 10 uM, IL6) amounted to 40%.

Regarding `COc1ccc(Nc2nc(NC3CCCCCC3)nc(N3CCN(C)CC3)n2)cc1F` [Compound 87, N^2-cycloheptyl-N^4-(3-fluoro-4-methoxyphenyl)-6-(4-methyl-1-piperazinyl)-1,3,5-triazine-2,4-diamine], the inhibition at 10 µM in the data set on heparanase (@ 10 uM) is 40 to 60%. Besides, the “Relative Activity” value in the data set on heparanase is recorded as “+ (0–30% inhibition)”. The activity at 10 µM in the data set on IL-6 [2] (setting [5]) came out at 5%.

For `COc1ccc(Nc2nc(NC3CCCCCC3)nc(N(C)C3CCNCC3)n2)cc1Cl` [Compound 146, N^2-(3-chloro-4-methoxy-phenyl)-N^4-cycloheptyl-N^6-methyl-N^6-piperidin-4-yl-1,3,5-triazine-2,4,6-triamine], the melting point lay within 114 to 116 °C. In addition, in data set [3] (read-out: Activity (note 1)), the pIC50 is greater than 5.52. The pIC50 in data set [3] (read-out: Avg IC-50) is roughly 5.66.

In turn, `COc1ccc(Nc2nc(NC(C)C)nc(N(C)C3CCNCC3)n2)cc1Cl` [Compound 107, N^2-(3-chloro-4-methoxy-phenyl)-N^4-isopropyl-N^6-methyl-N^6-piperidin-4-yl-1,3,5-triazine-2,4,6-triamine] came in with a melting point of 129 °C. In addition, in the data set with IL-6 [1], the “Inhibition of TNF-induced IL6 production” value is “++ (between about 50 and about 75% of control IL6 production)”. In addition, in the data set with IL-6 [1] (Homo sapiens, 24 h, read-out: % IL6 production compare to TNF stimulation of IL6 (100%), @ 5 uM, IL6), the activity at 5 µM amounted to 60%.

`COc1ccc(Nc2nc(Nc3ccc(OC)c(Cl)c3)nc(NC3CCCCCC3)n2)cc1Cl` [Compound 122, N,N′-Bis-(3-chloro-4-methoxy-phenyl)-N″-cycloheptyl-[1,3,5]triazine-2,4,6-triamine] registered a melting point of 183 °C.

The molecule `COc1ccc(Nc2nc(Cl)nc(OCC3CCCCC3)n2)cc1F` [Compound 114, (4-Chloro-6-cyclohexylmethoxy-[1,3,5]triazin-2-yl)-(3-fluoro-4-methoxy-phenyl)-amine] yielded a melting point of 98 °C.

Turning to `COc1ccc(Nc2nc(Cl)nc(NCC3CCCCC3)n2)cc1F` [Compound 125, 6-Chloro-N-cyclohexylmethyl-N′-(3-fluoro-4-methoxy-phenyl)-[1,3,5]triazine-2,4-diamine], the melting point came out at 156 °C. Moreover, the pIC50 in data set [3] (read-out: Activity (note 1)) is less than 5.15. Moreover, the pIC50 in data set [3] (read-out: Avg IC-50) is 5.00.

The molecule `CCN1CCCC1CNc1nc(NCC2CCCCC2)nc(Nc2ccc(OC)c(F)c2)n1` (centres unmarked) [Compound 126, N-Cyclohexylmethyl-N′-(1-ethyl-pyrrolidin-2-ylmethyl)-N″-(3-fluoro-4-methoxy-phenyl)-[1,3,5]triazine-2,4,6-triamine] came in with a melting point of 72 °C.

For the molecule `COc1ccc(Nc2nc(Nc3ccc(OC)c(F)c3)nc(OCC3CCCCC3)n2)cc1F` [Compound 115, 6-Cyclohexylmethoxy-N,N′-bis-(3-fluoro-4-methoxy-phenyl)-1,3,5-triazine-2,4-diamine], the melting point stood at 181 °C.

On to `CCN1CCCC1CNc1nc(Nc2ccccc2C)nc(NC2CCCCCC2)n1` (centres unmarked) [Compound 35, N^2-cycloheptyl-N^4-[(1-ethyl-2-pyrrolidinyl)methyl]-N^6-(2-methylphenyl)-1,3,5-triazine-2,4,6-triamine], for which, in the data set on heparanase, the inhibition at 5 µM stood at 53% and the “Relative Activity” value is given as “++ (30–40% inhibition)”. In addition, the activity at 10 µM in the data set with IL-6 [1] (setting [4]) is 34%. Moreover, in the data set with IL-6 [2] (setting [5]), the activity at 10 µM was 4%.

Take `CCNc1nc(Nc2ccc(OC)c(F)c2)nc(NC2CCCCCC2)n1` [Compound 76, N^2-cycloheptyl-N^4-ethyl-N^6-(3-fluoro-4-methoxyphenyl)-1,3,5-triazine-2,4,6-triamine]: in the data set with heparanase, the inhibition at 5 µM was 50% and the “Relative Activity” value was “++ (30–40% inhibition)”. Besides, the activity at 10 µM with IL-6 [1] (setting [4]) came out at 18%.

As to `CCN(CC)c1ccc(Nc2nc(NCC3CCCN3CC)nc(NC3CCCCCC3)n2)cc1Cl` (centres unmarked) [Compound 26, N^2-[3-chloro-4-(diethylamino)phenyl]-N^4-cycloheptyl-N^6-[(1-ethyl-2-pyrrolidinyl)methyl]-1,3,5-triazine-2,4,6-triamine], the activity at 10 µM in the data set with IL-6 [1] (setting [4]) amounted to 1%. This molecule also showed a cells floating in the data set on HAEC greater than 50%. For the same molecule, the pIC50 is less than 5.15 in data set [3] (read-out: Activity (note 1)) and 5.11 in data set [3] (read-out: Avg IC-50).

For `COc1ccc(Nc2nc(NC3CCCCCC3)nc(N3CCSCC3)n2)cc1Cl`, the melting point fell in the range of 78 to 80 °C.

As for `COc1ccc(Nc2nc(NC3CCCCCC3)nc(N3CCCC3)n2)cc1F` [Compound 82, N^2-cycloheptyl-N^4-(3-fluoro-4-methoxyphenyl)-6-(1-pyrrolidinyl)-1,3,5-triazine-2,4-diamine], in the data set on heparanase, the inhibition at 5 µM turned out to be 73% and the “Relative Activity” value is reported as “+++ (70–100% inhibition)”. The activity at 10 µM in the data set on IL-6 [1] (setting [4]) turned out to be 34%.

As for `COc1ccc(Nc2nc(NC3CCCCCC3)nc(OC(C)C)n2)cc1Cl` [Compound E21, N^2-(3-chloro-4-methoxyphenyl)-N^4-cycloheptyl-6-isopropoxy-1,3,5-triazine-2,4-diamine], the melting point lay in the range of 136 to 138 °C.

On to `COc1ccc(Nc2nc(NC3CCCCCC3)nc(OCC3CCCN3)n2)cc1Cl` (centres unmarked) [Compound E22, N^2-(3-chloro-4-methoxyphenyl)-N^4-cycloheptyl-6-(2-azolanylmethoxy)-1,3,5-triazine-2,4-diamine], for which the melting point was 84 to 86 °C.

In turn, `COc1ccc(Nc2nc(Cl)nc(Cl)n2)cc1F` [Compound 124, (4,6-Dichloro-[1,3,5]triazin-2-yl)-(3-fluoro-4-methoxy-phenyl)-amine] yielded a melting point of 134 °C.
